From the supplement of paper PMC10307832

How the values were obtained:
Experiment in all cases: relative viability (nuclei count vs DMSO), 5 days (fraction); higher = more cells survive
[1] = compound: COc1cc2nc(N3CCCN(C)CC3)nc(NC3CCN(Cc4ccccc4)CC3)c2cc1OC + Cc1nc(NC(=O)N2CCC[C@H]2C(N)=O)sc1-c1ccnc(C(C)(C)C(F)(F)F)c1 [Alpelisib] (partner 2 µM)
In short: (§1)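 Relative viability was taken as the ratio of nuclei in treated wells to nuclei in vehicle wells. Lung cancer cell lines in 1536-well plates received compounds by pin tool one day after seeding, either one drug alone or a fixed anchor-drug dose plus five library-drug doses (not always all listed) in √10 steps. Nuclei were counted on 4× images after 5 days of treatment, and values are medians of duplicate plates.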

[2] = compound: COc1cc2nc(N3CCCN(C)CC3)nc(NC3CCN(Cc4ccccc4)CC3)c2cc1OC + Nc1nc2[nH]cc(CCc3ccc(C(=O)N[C@@H](CCC(=O)O)C(=O)O)cc3)c2c(=O)[nH]1 [Pemetrexed] (partner 0.2 µM)
In short: as §1

[3] = compound: Cc1cc([C@@H](C)Nc2ccccc2C(=O)O)c2nc(N3CCOCC3)cc(=O)n2c1 [AZD6482] + CS(=O)(=O)CCNCc1ccc(-c2ccc3ncnc(Nc4ccc(OCc5cccc(F)c5)c(Cl)c4)c3c2)o1 [Lapatinib] (partner 2 µM)
In short: as §1

[4] = compound: Cc1cc([C@@H](C)Nc2ccccc2C(=O)O)c2nc(N3CCOCC3)cc(=O)n2c1 [AZD6482] + Nc1ncn([C@H]2C[C@H](O)[C@@H](CO)O2)c(=O)n1 [Decitabine] (partner 2 µM)
In short: as §1

Work on UMC-11 yielded a relative viability ([1]; first compound 0.2 µM) of 0.953, a relative viability ([1]; first compound 0.6325 µM) of 0.973 and a relative viability ([1]; first compound 2 µM) of 1.15. The relative viability ([1]; first compound 6.325 µM) was 1.01, the relative viability ([2]; first compound 0.2 µM) was 0.86 and the relative viability ([2]; first compound 0.6325 µM) was 0.773. For the same cell line, the relative viability ([2]; first compound 2 µM) was 0.834, the relative viability ([2]; first compound 6.325 µM) was 0.588 and the relative viability ([3]; first compound 0.08 µM) was 0.875. For the same cell line, the relative viability ([3]; first compound 0.253 µM) was 0.902, the relative viability ([3]; first compound 0.8 µM) was 1.03 and the relative viability ([3]; first compound 2.53 µM) was 0.602. The relative viability ([3]; first compound 8 µM) was 1.34, the relative viability ([4]; first compound 0.08 µM) was 0.623 and the relative viability ([4]; first compound 0.253 µM) was 0.584. For the same cell line, the relative viability ([4]; first compound 0.8 µM) was 0.606 and the relative viability ([4]; first compound 8 µM) was 0.613.
